Results from patent US20050037033A1, “Microbicidal compositions and methods and use” (priority 2003, published 2005).

Tests used:
HIV = experiment: Cell-free inactivation assay; type: cell-based; conditions: virus incubated with product for 2 minutes
Method: Cell-free inactivation assay: Virus was incubated with product for 2 minutes, a series of 10-fold dilutions were made, each dilution was added to the host cells and viral infectivity was measured.

[1] = system: Peptostrep asaccharolyticus; experiment: Anaerobe inhibition assay; type: cell-based; conditions: 2 strains
Mobiluncus curtisii = experiment: Anaerobe inhibition assay; type: cell-based; conditions: 2 strains, read-out: Minimum Inhibitory Concentrations (MICs)
HIV-IRF = experiment: PV-L assay (virus mixed with compound, then cells, no washing); type: cell-based; conditions: Human immunodeficiency virus 1, PM1, Series 1, PV-L: HIV-IRF mixed with compound 1 hour, then PM-1 cells, 8 days, reverse transcriptase activity, read-out: 50% Effective Concentrations (IC50)
Method: PV-L assay: Immobilized virus (HIV-IRF; 10^3 TCID50) was mixed with compound for 1 hour at 37° C. before addition of indicator T cells (PM-1; 10^5/well) and incubated for 8 days (no washing).
In each of the assays above, viral replication was monitored after 8 days by measuring reverse transcriptase activity.

[2] = system: HIV-1 strain BaL (R5 strain); experiment: Viral entry/binding inhibition assay (VBI), strain BaL; type: cell-based; conditions: Human immunodeficiency virus 1, Series 2, P4-R5 cells, 2 hour incubation, read-out: 50% Effective Concentrations (IC50)
Method: Viral entry inhibition assay (VBI): Cell-free HIV-1 (strain III-B: X4 strain; or strain BaL: R5 strain) was incubated with compound and P4-R5 cells for 2 hours at 37° C., followed by washing and 48 hour incubation.

Cytotoxicity assay = type: cell-based; conditions: human, HeLa cells
Method: The cells listed in Table 4 were incubated for the indicated period of time with different concentrations of ciclopiroxolamine and cell viability was measured by the 3-(4,5-dimethylthiazol-2-yl)-2,5-diphenyltetrazolium bromide (MTT) assay or by treatment with propidium iodide and fluorescence. Percent viability was calculated with respect to the viability of mock-exposed cells (cells incubated without compounds).
In the MTT assay, the effect of each agent on cell viability was determined using an assay in which dehydrogenases in viable cells cleave the compound 3-(4,5-dimethylthiazol-2-yl)-2,5-diphenyltetrazolium bromide (MTT), yielding a purple product (formazan) which can be measured spectrophotometrically (Pauwels et al., 1988). Cells were seeded into 96 well plates at a density of 3×10^4 cells/well 24 hours prior to introduction of the microbicides. Agents were diluted in as previously indicated. Agents were added to triplicate wells in half-log serial dilutions. […] At the conclusion of each experiment, cells were washed, replenished with fresh medium and incubated with MTT (250 μl/well) for 2 hours at 37° C. […] In this assay, measured absorbance is proportional to the viable cell number, and inversely proportional to the degree of cytotoxicity.

Prevotella disiens = experiment: Anaerobe inhibition assay; type: cell-based; conditions: 2 strains, read-out: Minimum Inhibitory Concentrations (MICs)
[3] = system: N. gonorrheae, strain ms11a; experiment: Neisseria gonorrhea inhibition assay; type: cell-based; conditions: gonococcal agar, overnight, colonies counted
Method: Compound was incorporated into gonococcal agar, the agar/agent mixture was poured on culture dishes and inoculated with N. gonorrheae, strain ms11a (10 μl of each dilution: 10^−1 to 10^−5 of a starting 0.5 Mcfarland solution which is equal to 1.5×10^8 colony forming units (cfu)/ml). The plates were incubated overnight (20-22 hours) and the colonies counted.

Mobiluncus mulieris = experiment: Anaerobe inhibition assay; type: cell-based; conditions: 2 strains, read-out: Minimum Inhibitory Concentrations (MICs)
HSV-2 [4] = experiment: HSV-2 viral binding inhibition assay; type: cell-based; conditions: Human alphaherpesvirus 2; Vero cells, plaque assay
Method: Confluent Vero cells were incubated with different concentrations of ciclopiroxolamine at 37° C. for 1 hour. 200 pfu of HSV-2 were then added to the cells in the presence of test compound and the cells were incubated at 37° C. for 1 hour. The infected cells were washed with PBS and overlaid with methylcellulose (no drug) for a plaque assay.

[5] = system: Bacteroides thetaiotaomicron; experiment: Anaerobe inhibition assay; type: cell-based; conditions: 1 strain, read-out: Minimum Inhibitory Concentrations (MICs)
Method: Working in an anaerobic chamber, the anaerobes were suspended into brucella broth to the turbidity of the 0.5 McFarland standard and pipetted into the wells of the Steers replicator head, removed from the chamber and stamped onto the supplemented Brucella agar plates containing the serial dilutions of the antimicrobials and the growth control plates. The final inoculum was 10^5 cfu/spot.
(§1) The anaerobes were incubated in an anaerobic chamber at 37° C. for 2 days; aerobes were incubated in ambient air at 36° C. for 20h.

Prevotella bivia = experiment: Anaerobe inhibition assay; type: cell-based; conditions: 2 strains, read-out: Minimum Inhibitory Concentrations (MICs)
[6] = system: Gardnerella vaginalis, Mobiluncus spp., Bacteroides spp., Clostridium perfringes, Fusobacterium nucleatum, Peptostreptococcus spp., Porphyromonas spp., and …; experiment: Anaerobe inhibition assay, all anaerobes tested; type: cell-based
Bacteroides fragilis = experiment: Anaerobe inhibition assay; type: cell-based; conditions: 1 strain, read-out: Minimum Inhibitory Concentrations (MICs)
Staph. aureus = experiment: Aerobe inhibition assay; type: cell-based, Staphylococcus aureus; conditions: 3 strains
Method: The aerobic organisms were suspended into saline to the turbidity of the 0.5 McFarland standard, diluted 1:10, pipetted into the wells of the Steers replicator head, and stamped onto the Mueller Hinton agar plates containing the serial dilutions of the antimicrobials.
as §1

HSV-2 [7] = experiment: HSV-2 virucidal assay; type: cell-based; conditions: Human alphaherpesvirus 2, 1 h, at 400 μg/ml (highest concentration tested); 60 min at 37° C.
Method: The virucidal activities of ciclopiroxolamine against HSV-2 were tested by mixing various concentrations of the test compound with 2×10^5 PFU of HSV-2, respectively, and incubating at 37° C. for 60 min. The culture medium was included as a […] control. At the end of incubation, the mixtures were diluted 1 in 1000 with culture medium. The infectivity of treated virus was determined by a standard viral plaque assay. Briefly, confluent Vero cells were washed with PBS and subsequently infected with 1 ml of treated mixture at 37° C. for 1 h. After viral inoculum was removed, the infected cells were washed with PBS and overlaid with 0.5% methylcellulose in culture medium. The infected cells were incubated at 37° C. for 2 days to allow the plaques to develop.

For `Cc1cc(C2CCCCC2)n(O)c(=O)c1.NCCO` [CO, 6-Cyclohexyl-1-hydroxy-4-methyl-2-(1H)-pyridone ethanolamine salt], the “log reduction (viral infectivity)” value (HIV; At 0.09%) was “At 0.09%: ≧2.0 log”, the “log reduction (viral infectivity)” value (HIV; At 0.3%) was “At 0.3%: ≧2.7 log” and the “Minimum Inhibitory Concentrations (MICs)” value [1] was 80 µg/mL. For the same molecule, the MIC ([1]; read-out: Minimum Inhibitory Concentrations (MICs)) was 40 µg/mL, the MIC (Mobiluncus curtisii) was 40 µg/mL and the IC50 (HIV-IRF) was 1.46 µg/mL. The IC50 [2] was 6.9 µg/mL, the CC50 at 1 h (Cytotoxicity assay; Series 1, Original material, 1 hour incubation, 100 μg/ml highest conc tested) was > 100 µg/mL and the CC50 at 1 h (Cytotoxicity assay; Series 3, 1 hour incubation) was 859 µg/mL. It also gave an MIC (Prevotella disiens) of 40 µg/mL, an IC50 [3] of 1 µg/mL and an MIC (Mobiluncus mulieris) of 40 µg/mL. For the same molecule, the IC50 (HSV-2 [4]) was 153 µg/mL, the MIC [5] was 40 µg/mL and the MIC (Prevotella bivia) was 40 µg/mL. The “minimal inhibitory concentrations (MICs), range over all anaerobes tested” value [6] was 40 to 80 µg/mL, the MIC (Bacteroides fragilis) was 40 µg/mL and the “Minimum Inhibitory Concentrations (MICs)” value (Staph. aureus) was 80 µg/mL. It also gave an MIC (Staph. aureus; Staphylococcus aureus, read-out: Minimum Inhibitory Concentrations (MICs)) of 40 µg/mL and an inhibition at 400 µg/mL (HSV-2 [7]) of 40%.
